Values after ≈ are worked out from the molar mass of the structure shown.
Experiments:
Format in all cases: functional, cell-based
[1] = Growth inhibition of human colon cancer cells; conditions: Cancer cell lines
[2] = Growth inhibition of human CNS cancer cells; conditions: Cancer cell lines
[3] = Growth inhibition of human lung cancer cells; conditions: Cancer cell lines
[4] = Growth inhibition of human breast cancer cells; conditions: Cancer cell lines
P388 = experiment: Growth inhibition of mouse P388 cells
HT-29 = experiment: Growth inhibition of human HT29 cells
[5] = Growth inhibition of human prostate cancer cells; conditions: cancer cell lines

Structure (SMILES) | IC50 [1] | IC50 [2] | IC50 [3] | IC50 [4] | IC50 (P388) | IC50 (HT-29) | IC50 [5]
CC(C)(O)/C=C/C(=O)[C@](C)(O)[C@H]1[C@H](O)C[C@@]2(C)[C@@H]3CC=C4[C@@H](C[C@H](O)C(=O)C4(C)C)[C@]3(C)C(=O)C[C@]12C [CUCURBITACIN D] | < 400 nM | < 400 nM | < 400 nM | < 400 nM |  |  | 
COc1cc([C@@H]2c3cc4c(cc3C[C@H]3COC(=O)[C@@H]32)OCO4)cc(OC)c1OC [DESOXYPODOPHYLLOTOXIN] |  |  |  |  | 2.5 ng/mL (≈ 6.27 nM) | 2.5 ng/mL (≈ 6.27 nM) | 
COc1cc([C@@H]2c3cc4c(c(O)c3C[C@H]3COC(=O)[C@@H]32)OCO4)cc(OC)c1OC [BETA-PELTATIN A] |  |  |  |  | 2.5 ng/mL (≈ 6.03 nM) | 2.5 ng/mL (≈ 6.03 nM) | 
CC(C)(O)/C=C/C(=O)[C@](C)(O)[C@H]1[C@H](O)C[C@@]2(C)[C@@H]3CC=C4[C@@H](C=C(O)C(=O)C4(C)C)[C@]3(C)C(=O)C[C@]12C [CUCURBITACIN I] | < 400 nM | < 400 nM | < 400 nM | < 400 nM |  |  | 
CC(=O)OC(C)(C)/C=C/C(=O)[C@](C)(O)[C@H]1[C@H](O)C[C@@]2(C)[C@@H]3CC=C4[C@@H](C=C(O)C(=O)C4(C)C)[C@]3(C)C(=O)C[C@]12C [CUCURBITACIN E] | < 400 nM | < 400 nM | < 400 nM | < 400 nM |  |  | 7 nmol
CC(=O)OC(C)(C)/C=C/C(=O)[C@](C)(O)[C@H]1[C@H](O)C[C@@]2(C)[C@@H]3CC=C4[C@H](C[C@H](O)C(=O)C4(C)C)[C@]3(C)C(=O)C[C@]12C [CUCURBITACIN B] | < 400 nM | < 400 nM | < 400 nM | < 400 nM |  |  | 
